Values after ≈ are worked out from the molar mass of the structure shown. Values joined by “and” are separate entries in the source; they are usually repeats but may differ in a detail not shown here. Equal entries are not always repeated. Where two headings read alike, the source gives them in different places.
Legend:
[1] = tested on: bloodstream trypomastigotes of T. cruzi (Y strain); assay: Activity against bloodstream trypomastigotes (Y strain), light microscopy count of live parasites; format: cell-based, Trypanosoma cruzi; details: for SI (Selectivity Index), bloodstream trypomastigotes: LC50 cardiac cell cultures / EC50 bloodstream trypomastigotes
Experimental: In addition, the activity of both natural products was also evaluated against bloodstream trypomastigotes (BT), another relevant form of T. cruzi in mammalian hosts (Table 2). […] As cardiomyopathy is one of the main chronic symptoms of CD, next, the cardiotoxicity profile was assessed using primary cultures of mouse cardiac cells (CC) incubated with increasing concentration of both biomolecules and Bz. After […] of incubation with both extracts, no evident cardiac alterations related to cellular density and morphology was observed by light microscopy.
Bloodstream trypomastigotes (BT) of the T. cruzi Y strain (DTU II) were obtained by cardiac punction from Swiss Webster mice during the parasitemia peak and the purified parasites were resuspended in Dulbecco’s modified Eagle medium (DMEM) (Cultilab) supplemented with 10% fetal bovine serum (FBS).

[2] = tested on: intracellular forms of T. cruzi (Tulahuen strain); assay: Activity against intracellular forms of T. cruzi (Tulahuen-β gal strain) in infected L929 cell lines, CPRG readout; format: cell-based, Trypanosoma cruzi; details: for SI (Selectivity Index), intracellular forms: LC50 L929 / EC50 intracellular forms; for inhibition at 10 µM / EC50: Trypanosoma cruzi
Experimental: The crude extracts and the resulting fractions were evaluated following a well standardized protocol of phenotypic analysis for novel drug candidates for CD [25]. The first approach was the screening against intracellular amastigotes (Tulahuen-β gal strain, DTU VI) using a fixed concentration of 10 µg/mL, which corresponds to the 90% effective concentration (EC90)value of the reference drug (Bz) for CD (Table 1). The leaves fraction using dichloromethane from Aureliana fasciculata var. fasciculata (AFfPD) sterilized T. cruzi infection in L929 cell lines, leading to 100% of infection reduction. […] Natural products from fruit pulp of C. cujete have no trypanocidal effect at a concentration of 10 µg/mL.
Culture derived trypomastigotes of Tulahuen strain (DTU VI), transfected with the β-galactosidase gene from Escherichia coli, were collected from the supernatant of previously infected L929 fibroblasts. Trypomastigotes were used to infect L929 cultures at a ratio of 10:1 (parasites/host cell) to determine activity against intracellular forms. After 2 h of interaction, the cultures were washed for the removal of remaining parasites and incubated for 48 h to ensure the establishment of the infection. On the first set of assays, the compounds were added in a fixed concentration (10 µg/mL or 10 µM for the extracts and purified fractions, respectively) that corresponds to EC90 of Bz. The non-infected cells (controls) were treated with DMSO and Bz and were also evaluated. The compounds that reached the same or higher activity than Bz were later evaluated in assays with increasing concentrations (serially diluted (7-fold): 0–50 µg/mL for extracts and fractions and 0–50 µM for purified compounds and Bz) for the determination of the EC50 and EC90 values (minimal concentration able to reduce to 50% and 90% of the infection index in cultures). In both assays the cultures were maintained at 37 °C for 96 h to enable the calculation of the inhibition percentage on the infection. Thereafter, 500 μM of substrate CPRG (chlorophenol red-β-D-galactopiranosideo) in 0.5% Nonidet P40 (Sigma-Aldrich, St. Louis, MO, United States) were added to the in vitro system. The plates were incubated for 18 h at 37 °C and, following, the absorbance was measured at 570 nm. […] All the assays were conducted in duplicate at least three times.

L929 cell lines = assay: in vitro; format: cell-based
Experimental: (§1) Primary cardiac cell cultures (CC) were obtained from Swiss Webster mice embryo hearts (18 gestation days) as described by Meirelles et al. and were used for toxicity assays. After purification, the cardiac cells were seeded (0.5 × 10^5 cells/well) in 96 wells microplates previously coated with 0.01% gelatin. The cardiac cultures were maintained in Dulbecco’s Modified Eagle’s Medium supplemented with 6% of FBS, 2.5 mM CaCl2, 1 mM L-glutamine, 1mM penicillin and 2% chicken embryo extract. Mice fibroblast of the line NTCL clone 929 (L929) were used for toxicity and anti-T. cruzi activity assays. L929 cells were seeded (4 × 10^3 cells/well) in 96 well microplates and kept in RPMI-1640 medium (Sigma-Aldrich, Missouri, EUA) supplemented with 10% FBS, 1% L-glutamine and 1% penicillin. The cell cultures were maintained at 37 °C at 5% CO2.
(§2) Cell viability was assessed using PrestoBlue (for assay with CC) and AlamarBlue (for assays with L929) with fluorescence and absorbance readouts (560–590 and 570–600 nm, respectively) in a spectrophotometer (Tunable microplates reader VersaMax; Molecular Devices). Additionally, cell morphology aspects were evaluated in a light microscope, as well as the contractability, density and cytoplasmic vacuolization. Cell viability rates were then determined by the LC50 values that correspond to the compound concentration able to reduce in 50% the viability of the cell population.

in vitro = format: cell-based
Experimental: as §1, §2

[3] = Cardiotoxicity, primary cardiac cell cultures (PrestoBlue, light microscopy); format: cell-based; details: Swiss Webster, mouse
Experimental: as §1, §2

[4] = tested on: promastigotes of L. amazonensis; parameters: method as in PMID 30513673; details: cited from earlier work
[5] = tested on: L. amazonensis infected macrophages; parameters: method as in PMID 30513673; details: cited from earlier work; for EC50: read-out: EC50 upon infected macrophages
[6] = tested on: cell-derived trypomastigotes; parameters: method as in PMID 28177047; details: cited from earlier work
[7] = Trypanosoma cruzi, 2 h, read-out: EC50 bloodstream trypomastigotes, 2 h, Y strain
[8] = Trypanosoma cruzi, 24 h, read-out: EC50 bloodstream trypomastigotes, 24 h, Y strain
[9] = Trypanosoma cruzi, 24 h, read-out: EC90 bloodstream trypomastigotes
[10] = TULAHUEN, L929, 96 h, read-out: % of Infection Reduction, 10 μM, 96 h of incubation, L929 cell line infected with Tulahuen strain
[11] = TULAHUEN, L929, 96 h, read-out: EC50 intracellular forms
[12] = Trypanosoma cruzi, 2 h, Y strain, read-out: EC50 bloodstream trypomastigotes
[13] = Trypanosoma cruzi, 24 h, Y strain, read-out: EC50 bloodstream trypomastigotes
[14] = Trypanosoma cruzi, 24 h, Y strain, read-out: EC90 bloodstream trypomastigotes
[15] = TULAHUEN, L929, 96 h, 10 μM, 96 h of incubation, L929 cell line infected with Tulahuen strain, read-out: % of Infection Reduction
[16] = 96 h, Tulahuen strain, L929 host cells, read-out: EC50 intracellular forms

O=C(Cn1ccnc1[N+](=O)[O-])NCc1ccccc1 [Bz, Benznidazole, reference compound]
SI (Selectivity Index), bloodstream trypomastigotes ([1]; 24 h, µM data): >57.1 | SI (Selectivity Index), bloodstream trypomastigotes ([1]; 24 h, μg/mL data): >83 | EC50 ([1]; Trypanosoma cruzi, 2 h, read-out: EC50 bloodstream trypomastigotes (Y strain), 2 h): > 50 µg/mL | EC50 [1, 7]: > 50 µM | EC90 ([1]; Trypanosoma cruzi, 2 h, read-out: EC90 bloodstream trypomastigotes (Y strain)): > 50 µg/mL | EC50 ([1]; Trypanosoma cruzi, 24 h, read-out: EC50 bloodstream trypomastigotes (Y strain), 24 h): 10.2 ± 0.3 µg/mL | EC50 [1, 8]: 13.1 ± 3.9 µM | EC90 [1, 9]: 31.3 ± 8.8 µM | EC90 ([1]; Trypanosoma cruzi, 24 h, read-out: EC90 bloodstream trypomastigotes (Y strain)): 23.3 ± 0.6 µg/mL | SI (Selectivity Index), intracellular forms ([2]; 96 h, µM data): >66.6 | SI (Selectivity Index), intracellular forms ([2]; 96 h, μg/mL data): > 52 | inhibition at 10 µM [2, 10]: 92 ± 7% | EC50 [2, 11]: 3 ± 0.6 µM | EC50 ([2]; TULAHUEN, L929, 96 h, read-out: EC50 intracellular forms (Tulahuen strain)): 3.8 ± 1.8 µg/mL | % of Infection Reduction after 96 h of Incubation ([2]; fixed concentration of 10 µg/mL, L929 cell lines infected with Tulahuen strain, 96 h): 90.5 ± 5.7% | LC50 L929 cell lines (L929 cell lines): not toxic up to the higher tested concentration | CC50 at 96 h (in vitro; mouse): > 200 µg/mL and > 200 µM | CC50 at 24 h [3]: > 750 µg/mL and > 750 µM

CC(=O)O[C@@H]1CC2C3C[C@H]4O[C@]45[C@@H](O)C=CC(=O)[C@]5(C)C3CC[C@]2(C)[C@@]1(O)[C@H](C)C1CC(C)=C(C)C(=O)O1 (stereo partly shown) [Compound 1, Aurelianolide A]
activity against promastigotes of L. amazonensis [4]: active | SI (Selectivity Index), bloodstream trypomastigotes ([1]; 24 h, µM data): 2.9 | EC50 [1, 12]: > 50 µM | EC50 [1, 13]: 5.68 ± 2.3 µM | EC90 [1, 14]: 8.33 ± 3.9 µM | SI (Selectivity Index), intracellular forms ([2]; 96 h, µM data): 9.15 | inhibition at 10 µM [2, 15]: > 90% | EC50 [2, 16]: 4.6 ± 1.3 µM | CC50 at 96 h (in vitro; mouse): 42.1 ± 28.3 µM | CC50 at 24 h [3]: 16.4 ± 1.3 µM | selectivity indexes, infected macrophages [5]: 5.6 | EC50 [5]: 2.3 µM

CC(=O)O[C@@H]1CC2C3CC=C4[C@@H](O)C=CC(=O)[C@]4(C)C3CC[C@]2(C)[C@@]1(O)[C@H](C)C1CC(C)=C(C)C(=O)O1 (stereo partly shown) [Compound 2, Aurelianolide B]
activity against promastigotes of L. amazonensis [4]: active | SI (Selectivity Index), bloodstream trypomastigotes ([1]; 24 h, µM data): 5.4 | EC50 [1, 12]: > 50 µM | EC50 [1, 13]: 5.72 ± 1.3 µM | EC90 [1, 14]: 9.25 ± 3.2 µM | SI (Selectivity Index), intracellular forms ([2]; 96 h, µM data): 17.1 | inhibition at 10 µM [2, 15]: > 90% | EC50 [2, 16]: 1.6 ± 0.4 µM | CC50 at 96 h (in vitro; mouse): 27.4 ± 1 µM | CC50 at 24 h [3]: 30.9 ± 3.8 µM | selectivity indexes, infected macrophages [5]: 2.0 | EC50 [5]: 6.43 µM

C[C@H]1[C@@H](O)CCC2[C@]3(C)CC[C@@]4(C)C5CC(C)(C)CC[C@]5(C)CC[C@]4(C)C3CC[C@@]21C (stereo partly drawn) [Compound 3, 3 beta-friedelanol]
inhibition at 10 µM [2, 15]: 21 ± 10%

C[C@H]1C(=O)CC[C@@H]2[C@]1(C)CC[C@H]1[C@@]2(C)CC[C@@]2(C)[C@@H]3CC(C)(C)CC[C@]3(C)CC[C@]12C [Compound 6, Friedelin]
inhibition at 10 µM [2, 15]: 0%

COc1cc([C@H]2O[C@H](c3cc(OC)c(OC)c(OC)c3)[C@@H](C)[C@@H]2C)cc(OC)c1OC [Compound 7, (-)-grandisin]
inhibition at 10 µM [2, 15]: 25 ± 36%

COc1cc(/C=C/C(=O)N2CCC=CC2=O)cc(OC)c1OC [Compound 8, Piplartine]
SI (Selectivity Index), bloodstream trypomastigotes ([1]; 24 h, µM data): 6.2 | EC50 [1, 7]: > 50 µM | EC50 [1, 8]: 5.4 µM | EC90 [1, 9]: 14.4 ± 5.8 µM | EC50 ([1]; read-out: EC50 bloodstream trypomastigotes, 24 h, Y strain): 5.38 ± 0.3 µM | SI (Selectivity Index), intracellular forms ([2]; 96 h, µM data): 9 | inhibition at 10 µM [2, 10]: ~50% | EC50 [2, 11]: 8.1 ± 0.9 µM | CC50 at 96 h (in vitro; 96 h, read-out: LC50 L929 cell lines): 73.1 ± 75.5 µM | CC50 at 24 h ([3]; 24 h, read-out: LC50 cardiac cell cultures): 33.1 ± 5.9 µM

C=CC(C)(O)CCC=C(C)C (stereo not shown) [linalool]
selectivity index ([6]; cell-derived trypomastigotes): 2.9 | EC50 against cell-derived trypomastigotes [6]: 0.31 µg/mL (≈ 2.01 µM)

Oleanolic acid [Compound 4]
% of Infection Reduction ([2]; 10 μM, 96 h of incubation, L929 cell line infected with Tulahuen strain): 20 ± 18%

— paper PMC8472459, “In Vitro Phenotypic Activity and In Silico Analysis of Natural Products from Brazilian Biodiversity on Trypanosoma cruzi” (Molecules, 2021)
